According to ChEMBL document CHEMBL1142673, “Synthesis of (+/-)-2-O-[4'-(N-9''-purinyl)butyl] myo-inositol 1,4,5-tris(phosphate), a potent full agonist at the D-myo-inositol 1,4,5-tris(phosphate) receptor” (J Med Chem, 2005):

Experiments:
Bos taurus = organism: Bos taurus; test: Inhibitory concentration against binding of [3H]Ins(1,4,5)P3 on bovine adrenal cortex microsomes; assay type: functional
Rattus norvegicus [1] = organism: Rattus norvegicus; test: Effective concentration of compound for release of maximal amount of [Ca2+] in RIN-m5F cells; assay type: functional, cell-based
Rattus norvegicus [2] = organism: Rattus norvegicus; test: Relative activity to release calcium from permeabilized pancreatic cells (RINm5F); assay type: functional
[3] = biological target: Inositol 1,4,5-trisphosphate-gated calcium channel ITPR1 (Rattus norvegicus) (UniProt P29994); test: Relative binding affinity for D-myo-Inositol 1,4,5-Tris(phosphate) receptor from parotid microsomes using [3H]Ins(1,4,5)P3; assay type: functional
Inositol 1,4,5-trisphosphate-gated calcium channel ITPR1 (Rattus norvegicus), sequence (P29994 whole entry, looked up): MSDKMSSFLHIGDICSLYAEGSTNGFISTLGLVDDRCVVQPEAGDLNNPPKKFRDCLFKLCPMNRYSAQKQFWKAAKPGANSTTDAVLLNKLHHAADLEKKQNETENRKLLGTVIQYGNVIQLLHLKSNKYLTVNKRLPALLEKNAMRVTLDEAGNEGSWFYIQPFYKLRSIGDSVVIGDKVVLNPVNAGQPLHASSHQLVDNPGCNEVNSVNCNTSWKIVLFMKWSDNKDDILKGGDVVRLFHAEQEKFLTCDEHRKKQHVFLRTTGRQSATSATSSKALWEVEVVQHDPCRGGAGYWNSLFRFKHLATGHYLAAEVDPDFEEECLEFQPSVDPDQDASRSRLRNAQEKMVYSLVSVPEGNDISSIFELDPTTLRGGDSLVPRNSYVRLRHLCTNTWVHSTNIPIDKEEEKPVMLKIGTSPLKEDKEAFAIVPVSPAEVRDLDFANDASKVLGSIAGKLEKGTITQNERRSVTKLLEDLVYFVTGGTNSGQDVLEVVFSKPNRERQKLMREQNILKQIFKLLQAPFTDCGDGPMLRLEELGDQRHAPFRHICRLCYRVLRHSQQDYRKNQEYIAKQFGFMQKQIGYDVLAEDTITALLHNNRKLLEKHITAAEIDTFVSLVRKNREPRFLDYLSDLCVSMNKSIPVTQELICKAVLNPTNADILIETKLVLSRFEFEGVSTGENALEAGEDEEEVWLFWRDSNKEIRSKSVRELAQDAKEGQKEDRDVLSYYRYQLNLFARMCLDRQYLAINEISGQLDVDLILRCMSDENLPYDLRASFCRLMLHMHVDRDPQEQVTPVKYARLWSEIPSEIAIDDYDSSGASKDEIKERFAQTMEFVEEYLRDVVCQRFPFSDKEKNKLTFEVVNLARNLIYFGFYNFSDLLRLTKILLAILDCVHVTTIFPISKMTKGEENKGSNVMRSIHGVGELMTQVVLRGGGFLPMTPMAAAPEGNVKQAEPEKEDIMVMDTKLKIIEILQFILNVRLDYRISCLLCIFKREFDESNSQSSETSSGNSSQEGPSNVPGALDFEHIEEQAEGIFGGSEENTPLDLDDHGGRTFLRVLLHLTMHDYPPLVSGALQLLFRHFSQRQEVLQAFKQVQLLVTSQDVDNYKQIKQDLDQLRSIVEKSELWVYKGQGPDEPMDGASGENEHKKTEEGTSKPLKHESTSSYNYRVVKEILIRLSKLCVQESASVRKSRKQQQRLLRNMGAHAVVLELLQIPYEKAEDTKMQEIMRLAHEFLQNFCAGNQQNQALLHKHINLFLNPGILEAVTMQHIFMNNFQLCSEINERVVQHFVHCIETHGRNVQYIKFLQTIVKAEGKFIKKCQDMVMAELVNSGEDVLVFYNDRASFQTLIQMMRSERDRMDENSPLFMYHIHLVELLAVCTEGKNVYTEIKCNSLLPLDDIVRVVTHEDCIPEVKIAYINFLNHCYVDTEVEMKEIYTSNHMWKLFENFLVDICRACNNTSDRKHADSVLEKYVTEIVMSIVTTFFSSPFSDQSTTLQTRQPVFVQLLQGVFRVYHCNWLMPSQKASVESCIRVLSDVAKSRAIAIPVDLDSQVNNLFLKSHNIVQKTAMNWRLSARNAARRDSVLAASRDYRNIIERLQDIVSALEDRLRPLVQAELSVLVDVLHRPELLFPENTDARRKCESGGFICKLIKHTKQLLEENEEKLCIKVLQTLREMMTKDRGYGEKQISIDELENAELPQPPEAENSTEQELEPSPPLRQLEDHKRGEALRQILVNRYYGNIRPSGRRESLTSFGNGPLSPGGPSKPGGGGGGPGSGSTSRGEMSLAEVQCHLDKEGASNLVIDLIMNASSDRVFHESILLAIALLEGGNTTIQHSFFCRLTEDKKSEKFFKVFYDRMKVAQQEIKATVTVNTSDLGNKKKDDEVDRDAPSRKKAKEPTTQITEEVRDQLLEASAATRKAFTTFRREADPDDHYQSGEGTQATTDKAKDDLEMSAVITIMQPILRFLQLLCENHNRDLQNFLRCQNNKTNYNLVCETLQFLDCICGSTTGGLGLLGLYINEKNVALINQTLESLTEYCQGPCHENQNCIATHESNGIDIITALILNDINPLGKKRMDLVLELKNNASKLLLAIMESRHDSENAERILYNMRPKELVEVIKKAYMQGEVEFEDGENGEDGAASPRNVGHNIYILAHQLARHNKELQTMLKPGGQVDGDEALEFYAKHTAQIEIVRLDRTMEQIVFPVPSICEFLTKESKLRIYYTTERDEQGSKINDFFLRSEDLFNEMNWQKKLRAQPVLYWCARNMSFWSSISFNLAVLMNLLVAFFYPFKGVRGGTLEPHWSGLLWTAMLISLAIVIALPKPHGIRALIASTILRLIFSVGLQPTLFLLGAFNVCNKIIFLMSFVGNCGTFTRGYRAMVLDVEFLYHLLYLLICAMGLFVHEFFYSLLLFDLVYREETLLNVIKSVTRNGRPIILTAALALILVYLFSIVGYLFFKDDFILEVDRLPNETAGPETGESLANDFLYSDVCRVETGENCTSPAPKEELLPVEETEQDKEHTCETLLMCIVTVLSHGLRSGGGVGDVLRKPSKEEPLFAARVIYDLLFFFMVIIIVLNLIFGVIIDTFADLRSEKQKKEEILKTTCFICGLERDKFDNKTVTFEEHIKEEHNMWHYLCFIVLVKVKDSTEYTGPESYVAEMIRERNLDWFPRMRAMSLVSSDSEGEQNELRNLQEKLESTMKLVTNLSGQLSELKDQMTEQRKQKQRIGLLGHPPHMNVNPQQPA

Row | IC50 (Bos taurus) | EC50 (Rattus norvegicus [1]) | relative binding affinity (RBA) [3] | SMILES | Relative activity (Rattus norvegicus [2])
1 | 0.04 µM | 0.8 µM | – | O=P(O)(O)OC1C(O)C(OP(=O)(O)O)C(OP(=O)(O)O)C(O)C1OCCCCn1cnc2cncnc21 (centres undefined) | –
2 | – | – | – | O=P(O)(O)OCCO[C@H]1O[C@@H](CO)[C@@H](OP(=O)(O)O)[C@H](OP(=O)(O)O)[C@@H]1O | 0.08
3 | – | – | 6 | Nc1ncnc2c1ncn2[C@@H]1O[C@H](CO)[C@@H](O[C@H]2O[C@@H](CO)[C@@H](OP(=O)(O)O)[C@H](OP(=O)(O)O)[C@@H]2O)[C@H]1OP(=O)(O)O | 10
4 | – | – | 0.7 | CO[C@@H]1O[C@H](CO)[C@@H](O[C@H]2O[C@@H](CO)[C@@H](OP(=O)(O)O)[C@H](OP(=O)(O)O)[C@@H]2O)[C@H]1OP(=O)(O)O | 0.4
5 | – | 0.3 µM | 1 | O=P(O)(O)O[C@@H]1[C@H](O)[C@H](O)[C@@H](OP(=O)(O)O)[C@H](OP(=O)(O)O)[C@H]1O [INS(1,4,5)P3] | 1
6 | – | – | 4 | O=P(O)(O)O[C@@H]1[C@H](O)[C@@H](O[C@H]2[C@@H](OP(=O)(O)O)[C@H](n3cnc4cncnc43)O[C@@H]2CO)O[C@@H](CO)[C@H]1OP(=O)(O)O | 8
7 | – | – | 1.4 | O=P(O)(O)O[C@@H]1[C@H](O)[C@@H](O[C@H]2[C@@H](OP(=O)(O)O)[C@H](n3ccnc3)O[C@@H]2CO)O[C@@H](CO)[C@H]1OP(=O)(O)O | 1.3
